pKi: −log10 of the molar value. Read-outs that look alike come from different tables or passages of the source. Residues, ends and D or L forms follow the SMILES beside them.

Series [1] relates to DP IV. The series can be described thus: Determination of the half-life (t1/2) of DP IV-catalyzed peptide truncation by MALDI-TOF MS. The following applies: truncation by DP IV. As to the method:
(§1) The degradation fate of peptides was measured by monitoring the signal intensity of the pseudomolecular ion peaks of parent peptides and N-terminal shorted peptides versus time when incubated with 40 mU procine DP IV, recombinant human DP IV or serum DP IV activity. […] As control served the preincubation of DP IV with 0.01M Tris-buffer (Sigma-Aldrich, Deisenhofen, Germany). The mass spectrometer employed was a Hewlett-Packard G2025 model with a linear time of flight analyzer; samples (4 μL) were mixed 1:1 v/v with matrix (44 mg diammonium-hydrogen-citrate and 30 mg 2′,6′-dihydroxyacetophenone in 1 ml aqueous solution containing 50% acetonitrile and 0.05% trifluoroacetic acid; Sigma-Aldrich), transferred to a probe tip and immediately evaporated using the Hewlett-Packard G2024A (Hewlett-Packard, Waldbronn, Germany) sample preparation vacuum chamber. 250 single laser-shot spectra were accumulated. This method of monitoring biodegradation has been validated and allows the general comparison of half-degradation times (t1/2) under various conditions.
(§2) The t1/2-calculation followed this procedure:
(§3) The height of the substrate peak was measured and set as 100% at time=0. During the reaction course the sum of substrate and product peak height were set as 100% and the percentage of the remaining substrate peak (also expressed as relative concentration) was determined. Diagrammed relative substrate concentration versus time t1/2 can be calculated based on first order exponential decay reaction course. [formula]

Experiment in series [2]: as above
As to the method:
as §1, §2, §3

Series [3] deals with T1, rec. human DP IV (Homo sapiens, UniProt P27487).
T1 construct: His6 (N); made in house; host or cells: Pichia pastoris X-33 (vector pPICαC, secreted into the medium)
The series can be described thus: MALDI-TOF approach: Ki of TFTSDY on DP IV-catalyzed peptide truncation. The following applies: K1, inhibitory effect on DP IV-catalyzed peptide truncation. It counts as biochemical. The procedure:
(§4) 250 single laser-shot spectra were accumulated.
(§5) In order to investigate directly the influence of TFTSDY on the DP IV-catalyzed peptide hydrolysis the MALDI-TOF assay was used.
(§6) As described before (determination of t1/2) DP IV and TFTSDY were preincubated and the reaction was started by adding the enzyme/hexapeptide mixture to substrate/buffer mix. The control reaction mixture consisted of buffer, enzyme and substrate. From the curves of the first order exponential the initial rate (v1) for the control and the reversible inhibited reaction was calculated.
(§7) For the uninfluenced reaction the Michaelis-Menten-equation was used.
(§8) Vi was calculated from plotting the relative substrate concentration versus time.
(§9) Km is given, also the substrate concentration. [formula]
(§10) For the reversible inhibited reaction the following reaction was used to calculate Kl: [formula]

The target of series [4] is T2, porcine DP IV (Sus scrofa, UniProt P22411).
T2 construct: purified DP IV from human, from porcine kidney, of recombinant human DP IV; from tissue; host or cells: porcine kidney
The series is described as above. It counts as biochemical. The following applies: K1, inhibitory effect on DP IV-catalyzed peptide truncation. As to the method:
as §4, §5, §6, §7, §8, §9, §10

Series [5] relates to DP IV. The series can be described thus: Peptide truncation by DP IV after preincubation with TFTSDY (MALDI-TOF). The class given is biochemical. As to the method:
as §4, §5, §6

Series [6] addresses T3, mu 16: recombinant human DP IV, mutation W629A (Homo sapiens, UniProt P27487, W629A).
T3 construct: His6 (N); made in house; host or cells: Pichia pastoris X-33 (vector pPICαC, secreted into the medium)
The series can be described thus: Determination of Ki in competition to standard substrate GP-4NA. The class given is biochemical. The following applies: mu 16 DP IV, competition to GP-4NA. As to the method: (§11) In order to measure the inhibition constant Ki a photometric assay was used The peptides were measured as competitors of the standard substrate GP-4-Nitroanilide. Three different substrate concentrations (0.4 mM to 0.05 mM) were combined with 8 different competitor concentrations (0.5 mM to 2 μM). […] Experiments were carried out under standard conditions: 30° C. in pH 7.6 40 mM HEPES (Sigma-Aldrich) buffer. Nitroaniline production was monitored using a HTS 7000+ microplate reader (PerkinElmer, Überlingen, Germany).
(§12) For a reversible competitive inhibition is to assumed: [formula]

In series [7] the target is T4, mu 15: recombinant human DP IV, mutation R560A (Homo sapiens, UniProt P27487, R560A).
T4 construct: His6 (N); made in house; host or cells: Pichia pastoris X-33 (vector pPICαC, secreted into the medium)
Described as above. It counts as biochemical. The following applies: mu 15 DP IV, competition to GP-4NA. As to the method: as §11, §12

In series [8] the target is T5, rh wt: recombinant human DP IV, wild type (Homo sapiens, UniProt P27487).
T5 construct: His6 (N); made in house; host or cells: Pichia pastoris X-33 (vector pPICαC, secreted into the medium)
The description is as above. It counts as biochemical. The following applies: competition to GP-4NA. The procedure: as §11, §12

T2 sequence (P22411 whole entry): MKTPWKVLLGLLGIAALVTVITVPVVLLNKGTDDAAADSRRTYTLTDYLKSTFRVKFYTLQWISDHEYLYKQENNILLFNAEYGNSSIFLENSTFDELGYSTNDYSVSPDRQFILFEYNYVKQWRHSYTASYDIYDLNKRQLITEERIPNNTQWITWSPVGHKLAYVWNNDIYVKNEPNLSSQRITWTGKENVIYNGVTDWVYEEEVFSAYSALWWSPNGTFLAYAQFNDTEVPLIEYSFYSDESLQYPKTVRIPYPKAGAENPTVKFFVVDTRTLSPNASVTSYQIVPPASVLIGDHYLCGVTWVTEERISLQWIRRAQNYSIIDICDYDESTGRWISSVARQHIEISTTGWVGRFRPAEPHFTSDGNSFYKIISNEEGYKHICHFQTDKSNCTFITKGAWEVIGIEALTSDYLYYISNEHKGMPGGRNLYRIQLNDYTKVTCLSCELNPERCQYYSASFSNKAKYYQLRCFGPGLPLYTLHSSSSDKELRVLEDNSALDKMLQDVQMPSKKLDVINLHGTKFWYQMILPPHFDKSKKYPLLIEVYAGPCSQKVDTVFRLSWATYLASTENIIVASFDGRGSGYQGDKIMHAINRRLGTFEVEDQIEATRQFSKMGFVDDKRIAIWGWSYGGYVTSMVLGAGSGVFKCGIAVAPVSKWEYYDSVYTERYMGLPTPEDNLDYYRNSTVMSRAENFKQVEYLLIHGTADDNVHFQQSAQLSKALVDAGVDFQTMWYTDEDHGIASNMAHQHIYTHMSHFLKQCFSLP
T1 sequence (P27487 37-766): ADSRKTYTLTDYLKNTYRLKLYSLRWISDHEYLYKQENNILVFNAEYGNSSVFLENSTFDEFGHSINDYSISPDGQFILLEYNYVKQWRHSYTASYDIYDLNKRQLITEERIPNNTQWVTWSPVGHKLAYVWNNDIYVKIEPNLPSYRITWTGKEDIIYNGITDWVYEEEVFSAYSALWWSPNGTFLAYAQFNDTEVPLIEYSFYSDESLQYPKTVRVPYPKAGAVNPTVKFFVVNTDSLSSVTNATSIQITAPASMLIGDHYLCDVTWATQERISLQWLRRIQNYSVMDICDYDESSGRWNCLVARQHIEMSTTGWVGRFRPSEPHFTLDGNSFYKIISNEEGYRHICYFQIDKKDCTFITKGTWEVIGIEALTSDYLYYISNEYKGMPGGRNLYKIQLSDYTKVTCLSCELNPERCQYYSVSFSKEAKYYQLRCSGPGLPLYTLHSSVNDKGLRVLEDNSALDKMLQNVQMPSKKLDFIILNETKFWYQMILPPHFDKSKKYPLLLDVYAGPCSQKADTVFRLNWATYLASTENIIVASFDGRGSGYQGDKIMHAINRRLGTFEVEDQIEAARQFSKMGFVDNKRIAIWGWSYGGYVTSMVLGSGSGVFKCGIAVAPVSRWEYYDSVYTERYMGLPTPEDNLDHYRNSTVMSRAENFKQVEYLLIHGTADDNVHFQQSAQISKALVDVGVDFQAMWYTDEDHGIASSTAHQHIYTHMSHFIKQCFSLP
T4 sequence (P27487 37-766 R560A): as the sequence (P27487 37-766) above, with R524A counted along it
T3 sequence (P27487 37-766 W629A): as the sequence (P27487 37-766) above, with W593A counted along it
T5 sequence (P27487 37-766): as the sequence (P27487 37-766) above

Take `C[C@@H](O)[C@H](NC(=O)CNC(=O)[C@H](CCC(=O)O)NC(=O)CNC(=O)[C@@H](N)Cc1ccc(O)cc1)C(=O)N[C@@H](Cc1ccccc1)C(=O)O` [G^2GIP1-6] (H-YGEGTF-OH): the half-life result in series [1] is recorded as “no degradation”.
Consider `CC[C@H](C)[C@H](NC(=O)[C@H](CO)NC(=O)[C@H](Cc1ccc(O)cc1)NC(=O)[C@H](CC(=O)O)NC(=O)[C@H](CO)NC(=O)[C@@H](NC(=O)[C@H](Cc1ccccc1)NC(=O)[C@@H](NC(=O)CNC(=O)[C@H](CCC(=O)O)NC(=O)CNC(=O)[C@@H](N)Cc1ccc(O)cc1)[C@@H](C)O)[C@@H](C)CC)C(=O)N[C@@H](C)C(=O)N[C@@H](CCSC)C(=O)N[C@@H](CC(=O)O)C(=O)N[C@@H](CCCCN)C(=O)N[C@H](C(=O)N[C@@H](Cc1c[nH]cn1)C(=O)N[C@@H](CCC(N)=O)C(=O)N[C@@H](CCC(N)=O)C(=O)N[C@@H](CC(=O)O)C(=O)N[C@@H](Cc1ccccc1)C(=O)N[C@H](C(=O)N[C@@H](CC(N)=O)C(=O)N[C@@H](Cc1c[nH]c2ccccc12)C(=O)N[C@@H](CC(C)C)C(=O)N[C@@H](CC(C)C)C(=O)N[C@@H](C)C(=O)N[C@@H](CCC(N)=O)C(=O)N[C@@H](CCCCN)C(=O)O)C(C)C)[C@@H](C)CC` [G^2GIP1-30], for which, in series [2], the half-life turned out to be 2.5 h.
The same measure, in the same setting: the same measure for `CC[C@H](C)[C@H](NC(=O)[C@H](CO)NC(=O)[C@H](Cc1ccc(O)cc1)NC(=O)[C@H](CC(=O)O)NC(=O)[C@H](CO)NC(=O)[C@@H](NC(=O)[C@H](Cc1ccccc1)NC(=O)[C@@H](NC(=O)CNC(=O)[C@H](CCC(=O)O)NC(=O)[C@H](CO)NC(=O)[C@@H](N)Cc1ccc(O)cc1)[C@@H](C)O)[C@@H](C)CC)C(=O)N[C@@H](C)C(=O)N[C@@H](CCSC)C(=O)N[C@@H](CC(=O)O)C(=O)N[C@@H](CCCCN)C(=O)N[C@H](C(=O)N[C@@H](Cc1c[nH]cn1)C(=O)N[C@@H](CCC(N)=O)C(=O)N[C@@H](CCC(N)=O)C(=O)N[C@@H](CC(=O)O)C(=O)N[C@@H](Cc1ccccc1)C(=O)N[C@H](C(=O)N[C@@H](CC(N)=O)C(=O)N[C@@H](Cc1c[nH]c2ccccc12)C(=O)N[C@@H](CC(C)C)C(=O)N[C@@H](CC(C)C)C(=O)N[C@@H](C)C(=O)N[C@@H](CCC(N)=O)C(=O)N[C@@H](CCCCN)C(=O)O)C(C)C)[C@@H](C)CC` [S^2GIP1-30]: 2.29 h.
As to `C[C@@H](O)[C@H](N)C(=O)N[C@@H](Cc1ccccc1)C(=O)N[C@H](C(=O)N[C@@H](CO)C(=O)N[C@@H](CC(=O)O)C(=O)N[C@@H](Cc1ccc(O)cc1)C(=O)O)[C@@H](C)O` [TFTSDY] (H-TFTSDY-OH; N-terminus and C-terminus assumed), the pKi in series [3] (substrate GIP) is 4.85; in series [3] (substrate PACAP-27), 4.57; in series [3] (substrate PACAP-38) it was 5.55; in series [3] (substrate glucagon) it was 5.43; in series [4] (substrate GIP) it was 4.18; in series [4] (substrate GLP-1), 4.86. For the same compound, the values for the pKi in series [4] (substrate NPY), in series [4] (substrate RANTES1-15) and in series [4] (substrate glucagon) were 4.76, no more than 1.91 and 5.17, respectively. In series [5] (DP IV preincubated with TFTSDY), the “influence on affinity of oligopeptides such as GIP, VIP, glucagon” value is reported as “considerably reduced”. In addition, the “influence on binding and hydrolysis of small dipeptide substrates” value in series [5] (DP IV preincubated with TFTSDY) is “only slightly influenced”. For the same compound, the “effect on truncation of substrate by DP IV” value in series [5] (substrate Rantes1-15, 160 μM TFTSDY) is “No differences”.
Consider `CC(C)[C@H](NC(=O)[C@@H](N)Cc1ccc(O)cc1)C(=O)N[C@@H](CCC(=O)O)C(=O)NCC(=O)N[C@H](C(=O)N[C@@H](Cc1ccccc1)C(=O)O)[C@@H](C)O` [V^2GIP1-6] (H-YVEGTF-OH), for which the half-life result in series [1] is given as “no degradation”.
Turning to `CC[C@H](C)[C@H](NC(=O)[C@H](CO)NC(=O)[C@H](Cc1ccc(O)cc1)NC(=O)[C@H](CC(=O)O)NC(=O)[C@H](CO)NC(=O)[C@@H](NC(=O)[C@H](Cc1ccccc1)NC(=O)[C@@H](NC(=O)CNC(=O)[C@H](CCC(=O)O)NC(=O)[C@@H](NC(=O)[C@@H](N)Cc1ccc(O)cc1)C(C)C)[C@@H](C)O)[C@@H](C)CC)C(=O)N[C@@H](C)C(=O)N[C@@H](CCSC)C(=O)N[C@@H](CC(=O)O)C(=O)N[C@@H](CCCCN)C(=O)N[C@H](C(=O)N[C@@H](Cc1c[nH]cn1)C(=O)N[C@@H](CCC(N)=O)C(=O)N[C@@H](CCC(N)=O)C(=O)N[C@@H](CC(=O)O)C(=O)N[C@@H](Cc1ccccc1)C(=O)N[C@H](C(=O)N[C@@H](CC(N)=O)C(=O)N[C@@H](Cc1c[nH]c2ccccc12)C(=O)N[C@@H](CC(C)C)C(=O)N[C@@H](CC(C)C)C(=O)N[C@@H](C)C(=O)N[C@@H](CCC(N)=O)C(=O)N[C@@H](CCCCN)C(=O)O)C(C)C)[C@@H](C)CC` [V^2GIP1-30], in series [2], the half-life is 4.97 h.
As for `C[C@H](NC(=O)[C@@H](N)Cc1ccc(O)cc1)C(=O)N[C@@H](CCC(=O)O)C(=O)N[C@@H](CO)C(=O)N[C@H](C(=O)N[C@@H](Cc1ccccc1)C(N)=O)[C@@H](C)O` [YAESTF amide] (H-YAESTF-NH2; N-terminus assumed), the pKi was 5.97 in series [6] (read-out: Ki) and 5.94 in series [7] (read-out: Ki).
On to “Glucagon (1-14): glucagon fragment 1-14 (HSQGTFTSDYSKYL; Glucagon; UniProt P01275 53-66, looked up, fragment) [reference compound]”, for which the Ki entry in series [8], in series [6] and in series [7] was “no inhibition” throughout.

The values are drawn from patent US20040058876A1, “Secondary binding site of dipeptidyl peptidase IV (DP IV)” (priority 2002, published 2004).
